Source: ChEMBL document CHEMBL1132074, “Potent and selective bicyclic lactam inhibitors of thrombin: Part 3: P1' modifications” (Bioorg Med Chem Lett, 1999)

Assays:
Serine protease 1 [1] = molecular target: T1, Serine protease 1 (Homo sapiens, UniProt P07477); assay: In vitro inhibitory activity against human trypsin
Prothrombin = Prothrombin (Homo sapiens, UniProt P00734); assay: Inhibition of human Thrombin
Serine protease 1 [2] = molecular target: T1, Serine protease 1; assay: In vitro inhibitory activity against human trypsin at 100 uM

T1 sequence (P07477 whole entry): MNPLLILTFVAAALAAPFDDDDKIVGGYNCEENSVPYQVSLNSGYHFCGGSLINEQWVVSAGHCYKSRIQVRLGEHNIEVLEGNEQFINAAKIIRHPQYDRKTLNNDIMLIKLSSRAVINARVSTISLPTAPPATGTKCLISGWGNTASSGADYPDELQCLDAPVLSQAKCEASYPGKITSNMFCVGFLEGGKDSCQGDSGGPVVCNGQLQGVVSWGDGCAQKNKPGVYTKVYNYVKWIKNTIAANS

Row | IC50 (Serine protease 1 [1]) [nM] | IC50 (Prothrombin) [nM] | inhibition (Serine protease 1 [2]) [%] | Structure (SMILES)
1 | 590 | < 1 | – | N=C(N)N1CCCC(C[C@H](NC(=O)[C@@H]2CC[C@H]3CN(C(=O)CCc4ccccc4)CC(=O)N32)C(=O)c2nc3ccccc3s2)C1 (some centres not stated)
2 | 27400 | 2370 | – | Cn1ccnc1C(=O)[C@H](CCCNC(=N)N)NC(=O)[C@@H]1CC[C@H]2CN(C(=O)CCc3ccccc3)CC(=O)N21
3 | < 1 | – | – | N=C(N)NCCC[C@H](NC(=O)[C@@H]1CC[C@H]2CN(C(=O)CCc3ccccc3)CC(=O)N21)C(=O)c1nccs1
4 | 970 | 57 | – | N=C(N)c1cccc(CC(NC(=O)[C@@H]2CC[C@H]3CN(C(=O)CCc4ccccc4)CC(=O)N32)C(=O)c2nc3ccccc3s2)c1 (some centres not stated)
5 | 160 | 340 | – | N=C(N)NCCC[C@H](NC(=O)[C@@H]1CC[C@H]2CN(C(=O)CCc3ccccc3)CC(=O)N21)C(=O)c1ccccn1
6 | 14 | 77 | – | NCCCC[C@H](NC(=O)[C@@H]1CC[C@H]2CN(C(=O)CCc3ccccc3)CC(=O)N21)C(=O)c1nccs1
7 | 18700 | 450 | – | Cn1c(C(=O)[C@H](Cc2cccc(C(=N)N)c2)NC(=O)[C@@H]2CC[C@H]3CN(C(=O)CCc4ccccc4)CC(=O)N32)nc2ccccc21
8 | 8490 | 2050 | – | Cn1c(C(=O)[C@H](CCCCN)NC(=O)[C@@H]2CC[C@H]3CN(C(=O)CCc4ccccc4)CC(=O)N32)nc2ccccc21
9 | 3360 | 51 | – | Cn1c(C(=O)[C@H](CCCNC(=N)N)NC(=O)[C@@H]2CC[C@H]3CN(C(=O)CCc4ccccc4)CC(=O)N32)nc2ccccc21
10 | 24 | 44 | – | Cc1csc(C(=O)C(CCCNC(=N)N)NC(=O)[C@@H]2CC[C@H]3CN(C(=O)CCc4ccccc4)CC(=O)N32)n1 (some centres not stated)
11 | – | 750 | 40 | Cn1c(C(=O)[C@H](CC2CCCN(C(=N)N)C2)NC(=O)[C@@H]2CC[C@H]3CN(C(=O)CCc4ccccc4)CC(=O)N32)nc2ccccc21 (some centres not stated)
12 | 12 | 15 | – | Cc1nc(C(=O)[C@H](CCCN=C(N)N)NC(=O)[C@@H]2CC[C@H]3CN(C(=O)CCc4ccccc4)CC(=O)N32)sc1CCO

Row | Structure (SMILES) | IC50 (Serine protease 1 [1]) [nM] | IC50 (Prothrombin) [nM] | inhibition (Serine protease 1 [2]) [%]
13 | N=C(N)NCCC[C@H](NC(=O)[C@@H]1CC[C@H]2CN(C(=O)CCc3ccccc3)CC(=O)N21)C(=O)c1nc2c(s1)CCC2 | 2 | 18 | –
14 | N=C(N)NCCC[C@H](NC(=O)[C@@H]1CC[C@H]2CN(C(=O)CCc3ccccc3)CC(=O)N21)C(=O)c1nc2ccccc2s1 | < 1 | < 1 | –
